Holding throughout (assay type): in vivo
Experiment [1] deals with induced type 2 diabetic mice. Description: Water intake test in induced type 2 diabetic mice. The note with it: high dose 10 mg/kg and low dose 2.5 mg/kg; 40-day period; vs induction treatment group STZ. As for the experimental part:
(§1) Male ICR mice (19-21 g) were obtained from BioLASCO Taiwan Co., Ltd. The mice were kept in the animal center of Transworld University at a controlled temperature of 22±2° C., relative humidity 55±5%, and with 12 hour light/12 hour dark cycles for 1 week before the experiment. For the induction of type 2 diabetic mice (induction treatment group STZ), Nicotinamide (210 mg/kg b.w.) (Sigma, Saint Louis, Mo., USA), dissolved in saline was intraperitoneally injected into mice. After 15 minutes, the mice were administered with […] (STZ) (Sigma, 180 mg/kg bw, ip injection), which was dissolved in citrate buffer (pH 4.5) before use. The control group received both vehicles. During the experimental period, the animals' food intake and body weight were monitored once a week. […]
In general, diabetic patients usually have clinical symptoms of “drinking more water.” In this experimental example, the water intake was recorded in a 40-day period for the blank group Sham, the induction treatment group STZ, Neoandrographolide low dose group NeoL (2.5 mg/kg), Neoandrographolide middle dose group NeoM (5.0 mg/kg) and Neoandrographolide high dose group NeoH (10 mg/kg).

Experiment [2] relates to induced type 2 diabetic mice. Description: Oral glucose tolerance test. The note with it: NeoL 2.5, NeoM 5.0, NeoH 10 mg/kg; within 0 to 3 hours after glucose 2 g/kg; vs induction treatment group STZ. As for the experimental part:
as §1, with “week. In addition, the dosage of the Neoandrographolide (Sigma-Aldrich Chemical Co., Missouri, USA) of the present invention is: NeoL (low dose group of Neoandrographolide): Neoandrographolide 2.5 mg/kg; NeoM (middle dose group of Neoandrographolide): Neoandrographolide 5.0 mg/kg; NeoH (high dose group of Neoandrographolide): Neoandrographolide 10 mg/kg. The above active ingredient was dissolved in Tween 20 and adjusted to a 0.5% methylcellulose (CMC) solution. The blank group (Sham) was normal mice without induction treatment.” for “week.”

Experiment [3] relates to induced type 2 diabetic mice. Description: Fasting blood glucose assay. The note with it: NeoL 2.5, NeoM 5.0, NeoH 10 mg/kg; seven days after administration; vs induction treatment group STZ. As for the experimental part: as §1
In this experimental example, the fasting blood glucose values were recorded in a 42-day period for the blank group Sham, the induction treatment group STZ, Neoandrographolide low dose group NeoL (2.5 mg/kg), Neoandrographolide middle dose group NeoM (5.0 mg/kg) and Neoandrographolide high dose group NeoH (10 mg/kg).

For experiment [4], the system named is induced type 2 diabetic mice. Description: Glycated hemoglobin (HbA1c) assay. To be noted: NeoL 2.5, NeoM 5.0, NeoH 10 mg/kg; after 42 days of continuous administration; vs induction treatment group STZ. The procedure:
as §1
In this experimental example, the glycated hemoglobin (HbA1c) values of mice were recorded in a 42-day period after continuous administration for the blank group Sham, the induction treatment group STZ, Neoandrographolide low dose group NeoL (2.5 mg/kg), Neoandrographolide middle dose group NeoM (5.0 mg/kg) and Neoandrographolide high dose group NeoH (10 mg/kg).

For experiment [5], the system named is induced type 2 diabetic mice. Description: Aspartate aminotransferase (AST) assay. The procedure:
(§2) Male ICR mice (19-21 g) were obtained from BioLASCO Taiwan Co., Ltd. The mice were kept in the animal center of Transworld University at a controlled temperature of 22±2° C., relative humidity 55±5%, and with 12 hour light/12 hour dark cycles for 1 week before the experiment. For the induction of type 2 diabetic mice (induction treatment group STZ), Nicotinamide (210 mg/kg b.w.) (Sigma, Saint Louis, Mo., USA), dissolved in saline was intraperitoneally injected into mice. After 15 minutes, the mice were administered with […] (STZ) (Sigma, 180 mg/kg bw, ip injection), which was dissolved in citrate buffer (pH 4.5) before use. The control group received both vehicles. During the experimental period, the animals' food intake and body weight were monitored once a week. In addition, the dosage of the Neoandrographolide (Sigma-Aldrich Chemical Co., Missouri, USA) of the present invention is: NeoL (low dose group of Neoandrographolide): Neoandrographolide 2.5 mg/kg; NeoM (middle dose group of Neoandrographolide): Neoandrographolide 5.0 mg/kg; NeoH (high dose group of Neoandrographolide): Neoandrographolide 10 mg/kg. The above active ingredient was dissolved in Tween 20 and adjusted to a 0.5% methylcellulose (CMC) solution. The blank group (Sham) was normal mice without induction treatment.
(§3) After completion of the test, surviving animals were sacrificed; before necropsy, blood samples were collected for serum biochemistry.
In this experimental example, the AST index of mice were recorded in a 42-day period after continuous administration for the blank group Sham, the induction treatment group STZ, Neoandrographolide low dose group NeoL (2.5 mg/kg), Neoandrographolide middle dose group NeoM (5.0 mg/kg) and Neoandrographolide high dose group NeoH (10 mg/kg).

In experiment [6] the test system is induced type 2 diabetic mice. Description: Triglyceride assay. As for the experimental part:
as §2, §3
(§4) In this experimental example, the triglyceride values and the total cholesterol in blood of mice were recorded in a 42-day period after continuous administration for the blank group Sham, the induction treatment group STZ, Neoandrographolide low dose group NeoL (2.5 mg/kg), Neoandrographolide middle dose group NeoM (5.0 mg/kg) and Neoandrographolide high dose group NeoH (10 mg/kg).

Experiment [7] relates to induced type 2 diabetic mice. Description: Total cholesterol assay. As for the experimental part: as §1, §4
The subject of experiment [8] is induced type 2 diabetic mice. Description: Uric acid assay. The note with it: NeoL 2.5, NeoM 5.0, NeoH 10 mg/kg; after 42 days of continuous administration; vs induction treatment group STZ. As for the experimental part:
as §1
In this experimental example, the serum uric acid index of mice was recorded in a 42-day period after continuous administration for the blank group Sham, the induction treatment group STZ, Neoandrographolide low dose group NeoL (2.5 mg/kg), Neoandrographolide middle dose group NeoM (5.0 mg/kg) and Neoandrographolide high dose group NeoH (10 mg/kg).

In experiment [9] the test system is induced type 2 diabetic mice. Description: Serum creatinine assay. The note with it: NeoL 2.5, NeoM 5.0, NeoH 10 mg/kg; after 42 days of continuous administration; vs induction treatment group STZ. As for the experimental part:
as §1
In this experimental example, the serum creatine index of mice was recorded in a 42-day period after continuous administration for the blank group Sham, the induction treatment group STZ, Neoandrographolide low dose group NeoL (2.5 mg/kg), Neoandrographolide middle dose group NeoM (5.0 mg/kg) and Neoandrographolide high dose group NeoH (10 mg/kg).

The mark [10] stands for this setting: NeoL 2.5, NeoM 5.0, NeoH 10 mg/kg, after 42 days of continuous administration, vs induction treatment group STZ.

Take `C=C1CC[C@@H]2[C@](C)(CO[C@@H]3O[C@H](CO)[C@@H](O)[C@H](O)[C@H]3O)CCC[C@@]2(C)[C@@H]1CCC1=CCOC1=O` [Neoandrographolide]: in experiment [1], the “amount of water intake” value is on record as “significantly reduced”. The “blood glucose levels in oral glucose tolerance test” value in experiment [2] is “significantly lower”. Besides, the “fasting blood glucose values” in experiment [3] is “significantly lower”. Further, the HbA1c values entry in experiment [4] is “significantly lower”. Further, the “AST values, low dose group” value in [5] (NeoL 2.5 mg/kg, 42 days, compared among the three dose groups) is on record as “most significant reduction”. Moreover, in experiment [5] (setting [10]), the AST index result is listed as “slightly lower”. For the same compound, the “minimum effective dose, improving liver function (AST)” value in [5] (judged from the experiment) is on record as “around 2.5 mg/kg”. In experiment [6] (2.5 to 10 mg/kg, 42 days), the “dose dependence of triglyceride-lowering effect” value is recorded as “dose-dependent”. Further, the “minimum effective dose, triglyceride-lowering effect” value in experiment [6] (42 days) was 2.5 mg/kg. In experiment [6] (setting [10]), the triglyceride values entry was “lower”. The “triglyceride values, middle and high dose groups” value in experiment [6] (NeoM 5.0 mg/kg and NeoH 10 mg/kg, 42 days, compared among the three dose groups) is on record as “lowest triglyceride values”. Moreover, in [7] (42 days), the “minimum effective dose, lowering total cholesterol in the blood” value was found to be 2.5 mg/kg. For the same compound, in experiment [7] (setting [10]), the “total cholesterol values in the blood” value is “lower”. Besides, the “serum uric acid index” value in experiment [8] is recorded as “significantly lower”. Besides, in [9], the serum creatinine index result is “significantly lower”.

These data come from patent US11318153B2, “Method of using Neoandrographolide for lowering blood sugar, lowering blood lipid, improving liver function and improving renal function” (Bioalpha International Sdn. Bhd., priority 2018, dated 2022).
